# Reference: patent publication US7053175B1, “Synthetic peptides useful in biological assays for detecting infections caused by group O HIV-1 viruses” (Bio-Rad Pasteur, priority 1997, dated 2006)
# No end group written: not given here.
# Test system: sera from patients infected with group O HIV-1 retroviruses
# Test: Immunoenzymatic test: Test No. 1 (immunoreactivity of peptides coated on microplates)
# Format: binding, human
# Design: key to ABSORBANCE: >: signal greater than the reading capacity of the spectrophotometer
# Settings: for ABSORBANCE: cyclized peptide 2 μg/ml
# Method: The sera used ESS, DUR, VAU and HAD are sera from French patients infected with group O HIV-1 retroviruses. The other serum samples from patients infected with group O HIV-1 retroviruses were obtained by the Yaoundé Pasteur Centre in Cameroon and were serotyped group O according to the serological algorithm described in AIDS (1977), 11, pp 445-453.
# The HIV-negative sera (n=48) were obtained from healthy volunteers.
# The synthetic peptides used were dissolved in water at a concentration of 1 mg/ml (stock solution). For the solid phase sensitization step (coating), 110 μl of a solution at 2 μg/ml of each peptide (obtained by diluting the stock solution with 0.1 M carbonate buffer solution) were added to each well of the microtitre plates Microtiter™ (NUNC). After incubating overnight at room temperature, the microplates were first washed with a Tris-NaCl buffer solution pH 7.4 containing 0.1% of Tween® 20 and 0.001% sodium merthiolate, and then saturated with a PBS solution containing 0.5% of Régilait™ (dried skimmed milk). After aspirating the saturating solution, the plates were heated for 10 min at 50° C.
# The serum samples were diluted 1/5 with a skimmed milk solution (citrate buffer supplemented with 0.01% of phenol red, 0.25% of chloroform and 0.25% of Kathon®), deposited in the wells of the plates and incubated for 30 min at 40° C.
# After washing with a Tris-NaCl buffer solution pH 7.4 containing 0.1% of Tween® 20 and 0.001% of sodium merthiolate, 100 μl of a solution of conjugate consisting of horseradish peroxidase-labelled anti-human IgG and IgM goat antibodies, containing as preservative 0.01% of sodium merthiolate, in solution in a citrate buffer solution supplemented with 30% glycerol and 25% normal foetal calf serum, were added to each plate well and then the plates were incubated for 30 min at 40° C.
# After washing with a Tris-NaCl buffer solution pH 7.4 containing 0.1% of Tween® 20 and 0.001% of sodium merthiolate, the colour was developed by adding, to each well, 100 μl of O-phenylenediamine in solution in hydrogen peroxide. The microplates were then incubated for 30 min at room temperature and in the dark. The coloured reaction was then stopped by addition of 100 μl of 4N sulphuric acid. The absorbance (A) was determined at 490 and 620 nm.
# The relative absorbance (A490-A620) read in each well is proportional to the immunoreactivity of each peptide. It indicates the ability of each peptide to react with the biological sample with which the test is carried out. The cut-off value was determined as being an absorbance equal to 0.15. It corresponds to the mean of the negative values (n=48) plus 12 standard deviations.
# The reactivity of the peptides of the invention (peptide No. 3 (4B), peptide No. 2 (3B) and peptide No. 1 (2B), all in cyclized form), was compared with that of two synthetic peptides having, as sequence, a portion of the natural sequence of the envelope (env) of the VAU isolate (group O HIV-1 retrovirus) and comprising an immunodominant epitope of gp41.
# For the study, these peptides were used in cyclized form.
sequence,measurement,setting,value
"LLNLWGCKNRAICYTSVKWNKT (cysteine pairing not given here) [VAU 22 AA, reference compound]",ABSORBANCE,serum 134,>
same,ABSORBANCE,serum 402,>
same,ABSORBANCE,serum 625,>
same,ABSORBANCE,serum 1062,>
same,ABSORBANCE,serum 1105*,0.099
same,ABSORBANCE,serum 1581,1.112
same,ABSORBANCE,serum 1702,>
same,ABSORBANCE,serum 1754,1.263
same,ABSORBANCE,serum 2294,>
same,ABSORBANCE,serum 2312,>
same,ABSORBANCE,serum 2313,>
same,ABSORBANCE,serum 2352,>
same,ABSORBANCE,serum 2551,>
same,ABSORBANCE,serum 2700,>
same,ABSORBANCE,serum 3016,>
same,ABSORBANCE,serum 3136,>
same,ABSORBANCE,serum 3235,>
same,ABSORBANCE,serum 3236,>
same,ABSORBANCE,serum 3302,>
same,ABSORBANCE,serum 3482,>
same,ABSORBANCE,serum 3529,>
same,ABSORBANCE,serum 3600*,>
same,ABSORBANCE,serum 3627*,>
same,ABSORBANCE,serum 3637,0.779
same,ABSORBANCE,serum 3653,1.441
same,ABSORBANCE,serum 3771,>
same,ABSORBANCE,serum 3884*,>
same,ABSORBANCE,serum 3891,>
same,ABSORBANCE,serum 3935,0.138
same,ABSORBANCE,serum 3945,>
same,ABSORBANCE,serum 4021*,0.050
same,ABSORBANCE,serum 4288*,2.337
same,ABSORBANCE,serum 4364,>
same,ABSORBANCE,serum 4434,2.273
same,ABSORBANCE,serum 4477,2.511
same,ABSORBANCE,serum 4489*,1.318
same,ABSORBANCE,serum 5149*,>
same,ABSORBANCE,serum 5164,>
same,ABSORBANCE,serum 5210,>
same,ABSORBANCE,serum 5270*,>
same,ABSORBANCE,serum 5373,1.359
same,ABSORBANCE,serum 5453,1.267
same,ABSORBANCE,serum 5766*,>
same,ABSORBANCE,serum 5931,0.202
same,ABSORBANCE,serum 5969*,2.491
same,ABSORBANCE,serum 6111,>
same,ABSORBANCE,serum 6165,>
same,ABSORBANCE,serum 6198*,>
same,ABSORBANCE,serum 6295*,0.972
same,ABSORBANCE,serum 6487,2.889
same,ABSORBANCE,serum 6512*,0.120
same,ABSORBANCE,serum 6627,>
same,ABSORBANCE,serum 6689*,>
same,ABSORBANCE,serum 6697,>
same,ABSORBANCE,serum 6782,2.190
same,ABSORBANCE,serum 6891,0.359
same,ABSORBANCE,serum 6976*,>
same,ABSORBANCE,serum 6998,>
same,ABSORBANCE,serum 7007,>
same,ABSORBANCE,serum 7120,>
same,ABSORBANCE,serum 7212,>
same,ABSORBANCE,serum 7258*,>
same,ABSORBANCE,serum 7297*,>
same,ABSORBANCE,serum 7439,>
same,ABSORBANCE,serum 7443,0.920
same,ABSORBANCE,serum DUR*,0.118
same,ABSORBANCE,serum ESS*,>
same,ABSORBANCE,serum HAD,0.789
same,ABSORBANCE,serum VAU*,>
LLSLWGCRGKAVCYTSVQWNET [PEPTIDE No. 1 (2B)],ABSORBANCE,serum 134,>
same,ABSORBANCE,serum 402,>
same,ABSORBANCE,serum 625,>
same,ABSORBANCE,serum 1062,>
same,ABSORBANCE,serum 1105*,>
same,ABSORBANCE,serum 1581,>
same,ABSORBANCE,serum 1702,1.162
same,ABSORBANCE,serum 1754,>
same,ABSORBANCE,serum 2294,0.447
same,ABSORBANCE,serum 2312,>
same,ABSORBANCE,serum 2313,>
same,ABSORBANCE,serum 2352,0.205
same,ABSORBANCE,serum 2551,>
same,ABSORBANCE,serum 2700,>
same,ABSORBANCE,serum 3016,0.243
same,ABSORBANCE,serum 3136,0.302
same,ABSORBANCE,serum 3235,>
same,ABSORBANCE,serum 3236,>
same,ABSORBANCE,serum 3302,0.386
same,ABSORBANCE,serum 3482,1.473
same,ABSORBANCE,serum 3529,1.803
same,ABSORBANCE,serum 3600*,2.743
same,ABSORBANCE,serum 3627*,2.910
same,ABSORBANCE,serum 3637,>
same,ABSORBANCE,serum 3653,0.044
same,ABSORBANCE,serum 3771,0.544
same,ABSORBANCE,serum 3884*,1.839
same,ABSORBANCE,serum 3891,2.780
same,ABSORBANCE,serum 3935,0.307
same,ABSORBANCE,serum 3945,>
same,ABSORBANCE,serum 4021*,>
same,ABSORBANCE,serum 4288*,2.802
same,ABSORBANCE,serum 4364,1.382
same,ABSORBANCE,serum 4434,>
same,ABSORBANCE,serum 4477,>
same,ABSORBANCE,serum 4489*,>
same,ABSORBANCE,serum 5149*,>
same,ABSORBANCE,serum 5164,>
same,ABSORBANCE,serum 5210,>
same,ABSORBANCE,serum 5270*,>
same,ABSORBANCE,serum 5373,>
same,ABSORBANCE,serum 5453,>
same,ABSORBANCE,serum 5766*,>
same,ABSORBANCE,serum 5931,>
same,ABSORBANCE,serum 5969*,>
same,ABSORBANCE,serum 6111,>
same,ABSORBANCE,serum 6165,2.714
same,ABSORBANCE,serum 6198*,>
same,ABSORBANCE,serum 6295*,>
same,ABSORBANCE,serum 6487,2.687
same,ABSORBANCE,serum 6512*,>
same,ABSORBANCE,serum 6627,>
same,ABSORBANCE,serum 6689*,>
same,ABSORBANCE,serum 6697,>
same,ABSORBANCE,serum 6782,2.462
same,ABSORBANCE,serum 6891,0.062
same,ABSORBANCE,serum 6976*,>
same,ABSORBANCE,serum 6998,>
same,ABSORBANCE,serum 7007,>
same,ABSORBANCE,serum 7120,>
same,ABSORBANCE,serum 7212,>
same,ABSORBANCE,serum 7258*,2.477
same,ABSORBANCE,serum 7297*,>
same,ABSORBANCE,serum 7439,>
same,ABSORBANCE,serum 7443,>
same,ABSORBANCE,serum DUR*,>
same,ABSORBANCE,serum ESS*,2.494
same,ABSORBANCE,serum HAD,0.041
same,ABSORBANCE,serum VAU*,>
same,immunoreactivity compared with the other peptides (in words),summary of Table IV,more immunoreactive than the VAU 22 AA peptide
